Test results reported in patent publication US12012415B2, “Compositions and methods for the diagnosis, treatment and prevention of neoplastic and neurological disorders” (AscentGene, Inc., priority 2018, dated 2024).

How the values were obtained:
[1] = tested on: Rat glioblastoma cell lines C6; experiment: Cell growth of glioblastoma cell line C6; type: cell-based; details: cell growth rate from number of live cells
Procedure: Rat glioblastoma cell lines C6 (A) and human non-small cell lung cancer cell line H841 (B) were grown in the proper medium and treated with different concentration of drug candidate AG-1031 (P) and AG-1503 (#3). Cell growth rate was calculated based on the number of live cells as compared to concentration in M of selected small molecules of the invention (see FIGS. 6A and 6B).

[2] = tested on: Aβ1-42-induced cognitive impairments; experiment: Open field test in Aβ1-42 Alzheimer's disease rat model; type: in vivo, rats; details: for number of entries into the center zone: 1 mg/kg i.v. daily 14 days, vs Aβ1-42 group; for total distance / traveling speed: open field, between the four groups
Procedure: (§1) Aβ1-42 (Sigma-Aldrich, St. Louis, MO, USA;) was dissolved in double-distilled water at the concentration of 5 μg/μl, and incubated at 37° C. for one week before surgery. The rats were randomly divided into four groups as Sham (n=8), Sham+AG-1601 (n=8), Aβ1-42 (n=8) and Aβ1-42+AG-1601 (n=8). The Alzheimer's disease rat models were established by intracerebroventricular (i.c.v.) injection of Aβ1-42 aggregates. The animals were anesthetized with intraperitoneal injection of pentobarbital sodium (50 mg/kg) and placed in a stereotaxic apparatus (Narishige, Japan). The head skin of the rat was opened and two small holes were drilled on both sides of skull following the coordinates: 0.8 mm posterior to bregma, +1.4 mm lateral to sagittal suture, 4.0 mm beneath the surface of brain. Aβ1-42 (2.0 μl per side) was injected bilaterally into the lateral ventricles through micro-syringe. The needle was taken out after 5 minutes of the injection to ensure the aggregates were infused completely. Rats in the Sham group underwent the same operational process, but same volumes of double-distilled water were injected instead of Aβ1-42. After surgery, all rats were injected with penicillin (100,000 U) in the hindquarter muscle to prevent infection. The animals of Sham+AG-1601 and Aβ1-42+AG-1601 groups were intravenous injection with AG-1601 (1 mg/kg), while the same volume vehicle was implemented for the other groups every day for 14 days after one week of the postoperative recovery.
The open field test was carried out to evaluate locomotor activity and exploratory behavior. This test was conducted as described previously with little modifications (Sugita et al., 2015). The open field test consists of a circular apparatus (80 cm in diameter, 30 cm high). The circular apparatus was divided into the center zone (30 cm in diameter in the middle of the arena) and the concentric outer circle zone. Rats were placed individually in the outer circle of the apparatus and allowed to explore freely for 5 min. The path of each rat was tracked by a camera-driven tracker system (Ethovision2.0, Noldus, Wagenigen, Netherlands). The number of entries into the center zone, the total distance and the traveling speed during the testing were analyzed.

[3] = tested on: hippocampal synaptic plasticity in the CA1 region; experiment: In vivo electrophysiology, hippocampal CA1 LTP and DEP, Aβ1-42 AD rat model; parameters: species or system rats; details: last 20 min, vs Aβ1-42 group
Procedure: as §1, with “recovery. The rats were placed in the stereotaxic apparatus after intraperitoneal injection of 30% urethane (0.4 g/kg Sigma-Aldrich, St. Louis, MO, USA). According to our former protocols (Gao et al., 2015) the appropriate incision on the scalp was cut to expose the skull and a small hole was drilled. […] The depth of both electrodes was optimized to acquire the proper amplitude of evoked potentials. […] A test stimulus was given every 30 s to record for 20 min as baseline. Then LTP was induced by TBS (30 trains of 12 pulses at 200 Hz) and recorded every 60s for 60 min. […]” for “recovery.”

[4] = tested on: SF295 xenograft tumor; experiment: SF295 GBM xenograft mice model; type: in vivo; details: 150 μg/mice IP every other day, 28 days
Procedure: Female SHO mice (Crl:SHO-Prkdescid Hr/6-8 weeks) were purchased from Charles River. Human glioblastoma cell line SF295 cells were injected subcutaneously on the right flank of 8 week female SHO mice (3×10^6/per mice), tumor appears around one week (day 7) post inoculation. When the tumor size reaches the volume of 100 mm^3, total 12 mice were randomly divided to two groups (Treatment & Vehicle). 100 μl of 1.5 μg/μl of AG-1601 (total 150 μg/mice) was injected via IP to each mouse in the Treatment Group every other day for total 28 days; the same volume of H2O was injected to the mouse in the Vehicle Group. Tumor size measurement was evaluated using the digital calipers and tumor size was calculated using the following formula [mm^3=((L+W)/4)×((L+W)/4)×((L+W)/4)×4/3×3.14159], data are platted as relative mean tumor volume+/−standard error of the mean.

C=CC1=C(C)c2cc3[nH]c(cc4nc(cc5[nH]c(cc1n2)c(C)c5C=C)C(C)=C4CCC(=O)O)c(CCC(=O)NCCCc1ccccc1)c3C [AG-1601, 3-(2,8,13,18-tetramethyl-3-(3-oxo-3-((3-phenylpropyl)amino)propyl)-12,17-divinylporphyrin-7-yl)propanoic acid]
inhibition of growth of glioma cell line C6 [1]: even better inhibitory activity on growth of glioma cells compared to AG-1503 | number of entries into the center zone [2]: increased dramatically | number of entries into the center zone ([2]; listed as AG-1061): increased significantly | total distance [2]: no significant effect | traveling speed [2]: no significant effect | total distance ([2]; listed as AG-1061): no significant difference | traveling speed ([2]; listed as AG-1061): no significant difference | fEPSP slopes of DEP [3]: reversed effectively | fEPSP slopes of LTP [3]: significantly recovered | fEPSP slopes of LTP ([3]; listed as AG-1061): augmented significantly | efficacy on SF295 xenograft tumor [4]: shows efficacy
